Drawing on PubChem BioAssay (NCI), this text covers GI50 and TGI for 12 compounds.

Where “and” joins values, the source holds several entries; their conditions need not be identical. Equal entries are not always repeated.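 Tested at 5 concentrations; 48 h exposure; 96-well plates; endpoints linearly interpolated, else capped at highest concentration. Abbreviation: GI50, concentration required for 50% inhibition of growth. The concentration for full growth arrest is given as TGI.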

Among the test systems are HS 578T breast; BT-549 breast; MDA-MB-231 breast; NCI/ADR-RES ovarian; MCF7 breast; T-47D breast.
Assay in all cases: NCI tumour cell line growth inhibition, 48 h

On to `Cc1cc(I)cc(CN(C)CCN2CCCC2)c1O`, for which the GI50 was 31.6 µM in the assay on HS 578T breast; 18.7 µM in the assay with BT-549 breast; 22 µM in the assay on MDA-MB-231 breast; 30.1 µM in the assay with NCI/ADR-RES ovarian; 24.3 µM in the assay with MCF7 breast; 21.5 µM in the assay with T-47D breast. The TGI was 67.1 µM in the assay on HS 578T breast; 48.8 µM in the assay on BT-549 breast; 67.3 µM with MDA-MB-231 breast; more than 100 µM with NCI/ADR-RES ovarian; 53.7 µM with MCF7 breast; 76 µM with T-47D breast.
As for `Cc1ccc(-c2nc(N)nc3c2nnn3Cc2cccc(CO[C@H]3CCOC3)n2)o1`, the GI50 is more than 100 µM with HS 578T breast; 82 µM in the assay with BT-549 breast; more than 100 µM in the assay on MDA-MB-231 breast; more than 100 µM in the assay with NCI/ADR-RES ovarian; more than 100 µM in the assay on MCF7 breast. Also, the TGI with HS 578T breast, with BT-549 breast, with MDA-MB-231 breast, in the assay on NCI/ADR-RES ovarian and in the assay on MCF7 breast was more than 100 µM each time.
Take `COc1ccc2c(c1)OC1=C(C(=O)OC1)C2c1cc(OC)c(OC)c(OC)c1` (configuration not stated): the GI50 in the assay on HS 578T breast is 0.324 µM; in the assay on BT-549 breast, 1.29 µM; in the assay with MDA-MB-231 breast, 1.3 µM; in the assay on NCI/ADR-RES ovarian, 0.325 µM; in the assay with MCF7 breast it was 0.35 µM; in the assay on T-47D breast, 0.489 µM. In addition, the TGI in the assay on HS 578T breast, in the assay with BT-549 breast, with MDA-MB-231 breast, in the assay with NCI/ADR-RES ovarian, in the assay with MCF7 breast and in the assay on T-47D breast was more than 100 µM throughout.
As to `CC[Si](CC)(CC)OC[C@]1([C@@H]2COC(C)(C)O2)CC=CC(=O)O1`, the GI50 with HS 578T breast was 34.6 µM; with BT-549 breast it was 20.2 µM; in the assay with MDA-MB-231 breast it was 51.1 µM; with NCI/ADR-RES ovarian, 32.1 µM; in the assay with MCF7 breast, 43.6 µM; in the assay with T-47D breast it was more than 100 µM. The TGI in the assay with HS 578T breast was more than 100 µM; in the assay with BT-549 breast it was 71.2 µM; with MDA-MB-231 breast it was more than 100 µM; in the assay with NCI/ADR-RES ovarian, more than 100 µM; in the assay on MCF7 breast, more than 100 µM; with T-47D breast, more than 100 µM.
With `Nc1cc(-c2cccc(OC(F)(F)F)c2)nc2ccc(N3CCCC3)cc12`, the GI50 with HS 578T breast is 0.051 µM and 0.0484 µM and 0.0347 µM; in the assay on BT-549 breast, 0.208 µM and 0.182 µM and 0.1 µM; with MDA-MB-231 breast it was 0.0385 µM and 0.0353 µM and 0.0356 µM; in the assay with NCI/ADR-RES ovarian, 0.0362 µM and 0.0363 µM and 0.0324 µM; in the assay on MCF7 breast, 0.037 µM and 0.036 µM and 0.0354 µM; with T-47D breast, 18.8 µM. Besides, the TGI with HS 578T breast is 13.2 µM and > 100 µM; with BT-549 breast, more than 100 µM; with MDA-MB-231 breast, 7.26 µM and > 38.6 µM and 56.9 µM; with NCI/ADR-RES ovarian, 20 µM and > 100 µM; in the assay on MCF7 breast it was 17.2 µM and > 100 µM; in the assay on T-47D breast it was 92.4 µM.
As for `Cc1cc(N2CCN(c3ccnc4cc(Cl)ccc34)CC2)nc(NC2CCCCC2)n1`, the GI50 in the assay on HS 578T breast is 2.1 µM; in the assay with BT-549 breast, 1.66 µM; with MDA-MB-231 breast, 2 µM; in the assay with NCI/ADR-RES ovarian, 1.91 µM; in the assay on MCF7 breast, 1.57 µM; with T-47D breast, 1.89 µM. Also, the TGI in the assay on HS 578T breast was found to be 6.62 µM; in the assay on BT-549 breast, 3.28 µM; in the assay with MDA-MB-231 breast it was 4.09 µM; in the assay with NCI/ADR-RES ovarian it was 3.97 µM; in the assay on MCF7 breast it was 3.47 µM; in the assay on T-47D breast, 4.7 µM.
Turning to `C[C@@H]1N=C(c2ccc(Br)cc2)Nc2nc3ccccn3c2C1=O`, the GI50 with HS 578T breast is 2.81 µM; in the assay on BT-549 breast it was 5.49 µM; with MDA-MB-231 breast, 6.08 µM; in the assay with NCI/ADR-RES ovarian, 7.45 µM; with MCF7 breast, 2.99 µM; with T-47D breast, 4.62 µM. The TGI was 52 µM in the assay on HS 578T breast; more than 100 µM in the assay on BT-549 breast; more than 100 µM in the assay on MDA-MB-231 breast; more than 100 µM in the assay on NCI/ADR-RES ovarian; more than 100 µM in the assay on MCF7 breast; more than 100 µM in the assay on T-47D breast.
As to `O=C(Nc1ccc(F)cc1F)c1cc(Br)ccc1O`, the GI50 with HS 578T breast was 2.24 µM; with BT-549 breast, 1.99 µM; with MDA-MB-231 breast, 2.26 µM; in the assay with NCI/ADR-RES ovarian, 2.86 µM; with MCF7 breast, 2.56 µM; in the assay on T-47D breast it was 1.81 µM. In addition, the TGI in the assay on HS 578T breast was 8.35 µM; in the assay on BT-549 breast, 5.51 µM; in the assay with MDA-MB-231 breast, 7.95 µM; in the assay on NCI/ADR-RES ovarian, 18.2 µM; in the assay on MCF7 breast, more than 100 µM; with T-47D breast, 7.19 µM.
Take `COc1cccc(-c2nc3sccn3c2-c2ccnc(NCCNS(=O)(=O)c3ccccc3)c2)c1`: the GI50 with HS 578T breast was 3.7 µM; with BT-549 breast it was 2.29 µM; with MDA-MB-231 breast it was 3.81 µM; in the assay on NCI/ADR-RES ovarian it was 2.66 µM; in the assay with MCF7 breast, 3.14 µM; in the assay on T-47D breast it was 0.776 µM. In addition, the TGI is more than 100 µM with HS 578T breast; 8.67 µM in the assay with BT-549 breast; more than 100 µM with MDA-MB-231 breast; 23.9 µM in the assay with NCI/ADR-RES ovarian; more than 100 µM in the assay on MCF7 breast; 4.96 µM in the assay on T-47D breast.
Consider `c1cc(OCCN2CCCCC2)ccc1CNc1ccc2nc(CCC3CCCCC3)[nH]c2c1`, for which the GI50 is 1.64 µM with HS 578T breast; 1.71 µM in the assay with BT-549 breast; 1.58 µM in the assay on MDA-MB-231 breast; 2.21 µM in the assay with NCI/ADR-RES ovarian; 1.7 µM with MCF7 breast; 1.71 µM in the assay on T-47D breast. Moreover, the TGI in the assay with HS 578T breast was determined as 4.64 µM; in the assay on BT-549 breast, 3.87 µM; in the assay with MDA-MB-231 breast, 3.02 µM; in the assay on NCI/ADR-RES ovarian, 5.74 µM; in the assay with MCF7 breast it was 4.26 µM; with T-47D breast, 4.52 µM.
Turning to `COc1ccc(C2=C(c3ccc(OC)c(OC)c3)C(=O)OC2)cc1`, the GI50 is 0.255 µM with HS 578T breast; 3.55 µM with BT-549 breast; 0.682 µM with MDA-MB-231 breast; less than 0.01 µM with NCI/ADR-RES ovarian; 1.66 µM with T-47D breast. The TGI in the assay with HS 578T breast was 0.792 µM; with BT-549 breast, more than 100 µM; with NCI/ADR-RES ovarian it was 1.12 µM; in the assay on MCF7 breast, more than 48.8 µM; in the assay on T-47D breast it was more than 91.8 µM.
In the case of `COc1c(Cl)c2c(c(OC)c1OC)-c1ccc(SC)c(=O)cc1[C@@H](NC(=O)OCC(F)(F)F)CC2`, the GI50 in the assay on HS 578T breast is less than 0.01 µM; in the assay on BT-549 breast it was less than 0.01 µM; in the assay with MDA-MB-231 breast, less than 0.01 µM; with NCI/ADR-RES ovarian, 0.0182 µM; in the assay with MCF7 breast, less than 0.01 µM. Besides, the TGI is more than 100 µM in the assay with HS 578T breast, 0.956 µM in the assay on BT-549 breast, 3.24 µM in the assay with MDA-MB-231 breast and more than 100 µM in the assay with MCF7 breast.
